Measured values: patent publication US11096930B2, “Substituted imidazopyridine compounds as inhibitors of indoleamine 2,3-dioxygenase and/or tryptophan-2,3-dioxygenase” (IOMet Pharma Ltd., priority 2016, dated 2021)

Assays:
[1] = target: T1, TDO (Homo sapiens (Human), UniProt P48775); assay: A172 (TDO) cell based assay for detection of kynurenine; details: A172 cells, 48 hours, read-out: pIC50 A172 (TDO) cell based assay (converted)
Experimental: (§1) Exemplary compounds disclosed herein were prepared, and tested to determine their effect as IDO and/or TDO inhibitors. Two different assays were employed: 1. a cell-based assay for detecting the effect of test compounds on kynurenine production in two different cancer cell types. This assay utilized cancer cells which expressed either TDO or IDO and as such was used as a means of testing compound activity at these two enzymes in a cell-based context. 2. a TDO and IDO biochemical coupled assay which utilized recombinantly produced and purified TDO and IDO enzymes in combination with the enzyme formamidase. This coupled enzyme system allowed conversion of N-formylkynurenine produced by TDO or IDO activity to kynurenine which was then quantified by fluorescence following addition of Erhlich's Reagent. The protocols for these are set out below.
(§2) A172 and SKOV3 Cell Based Assays for Detection of Kynurenine Produced by TDO and/or IDO
(§3) A172 (human glioblastoma) and SKOV3 (human ovarian adenocarcinoma) cells were seeded in a 96 well plate at 30,000 or 40,000 cells per well respectively in phenol red-free RPMI supplemented with 10% FCS, 2 mM L-glutamine and 500 μM L-tryptophan. IDO expression was induced in the SKOV3 cells by the addition of 500 ng/ml IFN-γ. Cells were incubated at 37° C. with or without the addition of test compound. After 48 hours, the cells were removed by centrifugation and Erhlich's reagent was added to the supernatant.

[2] = target: T1, TDO; assay: hTDO biochemical coupled assay; details: 330 μM L-tryptophan
Experimental: as §1
(§4) TDO and IDO Biochemical Coupled Assay
(§5) Recombinant human IDO or TDO was incubated in 50 mM KPO4 (pH 7.0), 0.5 mM EGTA, 0.5 mM EDTA, 0.05% Triton™ X100, 20 mM ascorbate, 10 μM methylene blue, 500 U/ml catalase, 50 μg/ml KynB (kynurenine formamidase). […] After incubation for 17 minutes at room temperature the reactions were stopped by the addition of Erhlich's reagent and incubated at room temperature for 5 minutes before the fluorescence was read.

[3] = target: T2, IDO (Homo sapiens (Human), UniProt P14902); assay: hIDO biochemical coupled assay; details: 45 μM L-tryptophan
T2 sequence (P14902 whole entry): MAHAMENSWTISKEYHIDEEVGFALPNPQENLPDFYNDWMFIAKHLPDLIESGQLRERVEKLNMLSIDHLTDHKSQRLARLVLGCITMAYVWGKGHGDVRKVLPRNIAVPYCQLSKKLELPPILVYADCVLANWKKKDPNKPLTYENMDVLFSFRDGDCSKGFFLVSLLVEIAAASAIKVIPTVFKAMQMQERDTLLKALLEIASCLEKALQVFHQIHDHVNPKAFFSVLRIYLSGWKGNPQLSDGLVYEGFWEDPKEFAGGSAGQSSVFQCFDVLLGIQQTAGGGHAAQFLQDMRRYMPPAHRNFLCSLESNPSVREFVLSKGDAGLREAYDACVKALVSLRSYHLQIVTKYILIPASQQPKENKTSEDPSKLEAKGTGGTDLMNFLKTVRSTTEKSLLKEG
Experimental: as §1, §4, §5

[4] = target: T2, IDO; assay: SKOV3 (IDO) cell based assay for detection of kynurenine; details: SKOV3 cells, IDO induced by IFN-γ, 48 hours, read-out: pIC50 SKOV3 (IDO) cell based assay (converted)
Experimental: as §1, §2, §3

T1 sequence (P48775 whole entry): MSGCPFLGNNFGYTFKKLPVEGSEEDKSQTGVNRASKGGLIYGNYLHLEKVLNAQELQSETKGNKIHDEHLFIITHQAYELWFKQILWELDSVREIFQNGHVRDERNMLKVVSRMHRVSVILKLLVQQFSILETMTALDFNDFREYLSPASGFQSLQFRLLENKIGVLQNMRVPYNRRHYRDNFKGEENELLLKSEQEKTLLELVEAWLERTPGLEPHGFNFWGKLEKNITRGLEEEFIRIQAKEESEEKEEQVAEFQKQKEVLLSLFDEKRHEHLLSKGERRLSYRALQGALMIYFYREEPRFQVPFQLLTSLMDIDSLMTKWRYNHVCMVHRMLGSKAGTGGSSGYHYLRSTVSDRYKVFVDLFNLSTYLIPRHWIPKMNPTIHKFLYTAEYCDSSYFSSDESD

| IC50 [1] [µM] | pIC50 hTDO biochemical coupled assay [2] | pIC50 hIDO biochemical coupled assay [3] | IC50 [4] [µM] | Structure (SMILES) |
| --- | --- | --- | --- | --- |
| > 10 | 5.74 | 5.89 | 6.17 | CN1C(=O)NC2(CCN(c3cc(C(F)(F)F)cc4cncn34)CC2)C1=O [Example 6, 3-Methyl-8-(7-(trifluoromethyl)imidazo[1,5-a]pyridin-5-yl)-1,3,8-triazaspiro[4.5]decane-2,4-dione] |
| > 10 | 5.6 | 7.53 | 0.617 | O=C1NC(=O)C2(CCN(c3cc(C(F)(F)F)cc4cncn34)CC2)N1 [Example 1, 8-(7-(Trifluoromethyl)imidazo[1,5-a]pyridin-5-yl)-1,3,8-triazaspiro[4.5]decane-2,4-dione] |
| 10 | 5.4 | 5.92 | 3.63 | O=C1NC2(CCN(c3cc(C(F)(F)F)cc4cncn34)CC2)C(=O)N1CC1CCOCC1 [Example 7, 3-((Tetrahydro-2H-pyran-4-yl)methyl)-8-(7-(trifluoromethyl)imidazo[1,5-a]pyridin-5-yl)-1,3,8-triazaspiro[4.5]decane-2,4-dione] |
| > 10 | 5.78 | 6.58 | 1.74 | O=C1NC2(CCN(c3cc(C(F)(F)F)cc4cncn34)CC2)C(=O)N1c1ccccc1 [Example 9, 3-Phenyl-8-(7-(trifluoromethyl)imidazo[1,5-a]pyridin-5-yl)-1,3,8-triazaspiro[4.5]decane-2,4-dione] |
| > 10 | 4.78 | 5.92 | 4.68 | CC1(C)CN(c2cc(C(F)(F)F)cc3cncn23)CCC12NC(=O)N(CC1CCOCC1)C2=O (stereo not shown) [Example 14, 6,6-dimethyl-3-((tetrahydro-2H-pyran-4-yl)methyl)-8-(7-(trifluoromethyl)imidazo[1,5-a]pyridin-5-yl)-1,3,8-triazaspiro[4.5]decane-2,4-dione] |

Further lines, the molecule ahead of its results:

| Structure (SMILES) | IC50 [1] [µM] | pIC50 hTDO biochemical coupled assay [2] | pIC50 hIDO biochemical coupled assay [3] | IC50 [4] [µM] |
| --- | --- | --- | --- | --- |
| CC1(C)CN(c2cc(Cl)cc3cncn23)CCC12NC(=O)NC2=O (stereo not shown) [Example 11, 8-(7-Chloroimidazo[1,5-a]pyridin-5-yl)-6,6-dimethyl-1,3,8-triazaspiro[4.5]decane-2,4-dione] | 2.09 | 6.33 | 6.99 | 3.72 |
| CC1(C)CN(c2cc(C(F)(F)F)cn3cncc23)CCC12NC(=O)NC2=O (stereo not shown) [Example 12, 6,6-Dimethyl-8-(6-(trifluoromethyl)imidazo[1,5-a]pyridin-8-yl)-1,3,8-triazaspiro[4.5]decane-2,4-dione] | 0.661 | 6.1 | 5.74 | 1.17 |
| O=C1CC2(CCN(c3cc(C(F)(F)F)cc4cncn34)CC2)C(=O)N1 [Example 13, 8-(7-(trifluoromethyl)imidazo[1,5-a]pyridin-5-yl)-2,8-diazaspiro[4.5]decane-1,3-dione] | > 10 | 5.77 | 6.53 | 1.26 |
| O=C1NC(=O)C2(CCN(c3cc(C(F)(F)F)cn4cncc34)CC2)N1 [Example 4, 8-(6-(Trifluoromethyl)imidazo[1,5-a]pyridin-8-yl)-1,3,8-triazaspiro[4.5]decane-2,4-dione] | > 10 | 5.84 | 5.99 | 4.79 |
| CC1(C)CN(c2cc(Br)cc3cncn23)CCC12NC(=O)NC2=O (stereo not shown) [Example 16, 8-(7-Bromoimidazo[1,5-a]pyridin-5-yl)-6,6-dimethyl-1,3,8-triazaspiro[4.5]decane-2,4-dione] | 7.94 | 5.92 | 7.06 | 0.135 |
| CC1(C)CN(c2cc(Cl)cc3cncn23)CCC12NC(=O)NC2=O (stereo not shown) [Example 8, 8-(7-Chloroimidazo[1,5-a]pyridin-5-yl)-6,6-dimethyl-1,3,8-triazaspiro[4.5]decane-2,4-dione] | 7.94 |  |  | 0.2 |
| O=C1NC(=O)C2(CCN(c3cc(Br)cc4cncn34)CC2)N1 [Example 2, 8-(7-Bromoimidazo[1,5-a]pyridin-5-yl)-1,3,8-triazaspiro[4.5]decane-2,4-dione] | > 10 | 6.29 | 7.19 | 0.562 |
| CN1C(=O)NC2(CCN(c3cc(C(F)(F)F)cc4cncn34)CC2(C)C)C1=O (stereo not shown) [Example 10, 3,6,6-Trimethyl-8-(7-(trifluoromethyl)imidazo[1,5-a]pyridin-5-yl)-1,3,8-triazaspiro[4.5]decane-2,4-dione] | > 10 | 5.57 | 6.2 | 7.76 |
| O=C1NC(=O)C2(CCN(c3cc(Cl)cc4cncn34)CC2)N1 [Example 3, 8-(7-Chloroimidazo[1,5-a]pyridin-5-yl)-1,3,8-triazaspiro[4.5]decane-2,4-dione] | > 10 | 5.85 | 6.55 | 1.41 |
| CC1(C)CN(c2cc(C(F)(F)F)cc3cncn23)CCC12NC(=O)N(c1ccccc1)C2=O (stereo not shown) [Example 15, 6,6-Dimethyl-3-phenyl-8-(7-(trifluoromethyl)imidazo[1,5-a]pyridin-5-yl)-1,3,8-triazaspiro[4.5]decane-2,4-dione] | > 10 | 4.42 | 5.66 | 5.62 |
